Drawing on ChEMBL document CHEMBL4665749, “Usnic Acid Conjugates with Monoterpenoids as Potent Tyrosyl-DNA Phosphodiesterase 1 Inhibitors” (J Nat Prod, 2020), this text covers CC50, IC50 and Ratio for eight compounds.

Assay [1] relates to HeLa. Kind of assay: Cytotoxicity against human HeLa cells assessed as reduction in cell viability after 3 days by fluorometric assay. Type of assay: functional. To be noted: 72 h.
Assay [2] concerns the target Tyrosyl-DNA phosphodiesterase 1 (Homo sapiens, UniProt Q9NUW8). Kind of assay: Inhibition of recombinant TDP1 (unknown origin) expressed in Escherichia coli using 5'-FAM/3'-BHQ1 tagged oligonucleotide as substrate by fluorescence assay.
Assay [3] relates to HeLa. Put plainly: Potency index, ratio of CC50 of topotecan to CC50 of compound for human HeLa cells assessed as reduction in cell viability after 3 days in presence of topotecan by fluorometric assay. It counts as functional.
Assay [4] concerns HeLa. Kind of assay: Cytotoxicity against human HeLa cells assessed as reduction in cell viability after 3 days in presence of topotecan by fluorometric assay. It counts as functional. To be noted: 72 h.

Molecules are shown by their SMILES.

Tyrosyl-DNA phosphodiesterase 1, sequence (Q9NUW8 whole entry): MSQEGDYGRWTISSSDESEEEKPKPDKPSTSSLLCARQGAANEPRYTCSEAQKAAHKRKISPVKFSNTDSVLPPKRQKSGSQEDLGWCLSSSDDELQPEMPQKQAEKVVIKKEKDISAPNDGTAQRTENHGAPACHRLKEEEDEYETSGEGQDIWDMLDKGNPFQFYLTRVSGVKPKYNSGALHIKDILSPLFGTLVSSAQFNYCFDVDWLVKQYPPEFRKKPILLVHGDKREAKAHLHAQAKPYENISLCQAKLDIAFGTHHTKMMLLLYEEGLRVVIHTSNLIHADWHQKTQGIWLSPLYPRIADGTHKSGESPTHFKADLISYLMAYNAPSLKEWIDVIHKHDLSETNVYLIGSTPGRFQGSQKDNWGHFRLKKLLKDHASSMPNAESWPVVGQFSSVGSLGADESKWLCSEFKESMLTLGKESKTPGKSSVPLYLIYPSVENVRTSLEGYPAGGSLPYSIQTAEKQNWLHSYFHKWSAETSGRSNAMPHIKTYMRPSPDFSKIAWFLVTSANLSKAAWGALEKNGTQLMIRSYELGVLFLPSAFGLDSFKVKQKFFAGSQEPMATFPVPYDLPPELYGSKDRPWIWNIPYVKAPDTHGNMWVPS

In the case of `CC(=O)C1=C(O)C=C2Oc3c(-c4csc(N/N=C5/C[C@H]6CC[C@]5(C)C6(C)C)n4)c(O)c(C)c(O)c3[C@@]2(C)C1=O`, the CC50 (commonly the concentration at which the toxic effect on the cells reaches its halfway point) in the assay with HeLa [1] stood at 20000 nM; in the assay on HeLa [4], 2700 nM. The IC50 (usually the concentration at which inhibition is half-maximal) in assay [2] was found to be 31 nM. Moreover, the Ratio in the assay on HeLa [3] is given as 1.7.

Turning to `C=C(C)[C@H]1CC=C(/C=N\Nc2nc(-c3c(O)c(C)c(O)c4c3OC3=CC(O)=C(C(C)=O)C(=O)[C@@]34C)cs2)CC1`, the CC50 with HeLa [1] is 20000 nM; in the assay with HeLa [4], 1200 nM. For the same compound, the IC50 in assay [2] came out at 27 nM. Also, the Ratio with HeLa [3] came out at 3.8.

`CC(=O)C1=C(O)C=C2Oc3c(-c4csc(NN=CCC(C)CCCC(C)(C)O)n4)c(O)c(C)c(O)c3[C@@]2(C)C1=O` (stereo not given in full): the CC50 with HeLa [1] is 20000 nM. Further, the IC50 in assay [2] amounted to 139 nM.

As to `CC(=O)C1=C(O)C=C2Oc3c(-c4csc(N/N=C\C5=C[C@@H]6C[C@H](C5)C6(C)C)n4)c(O)c(C)c(O)c3[C@@]2(C)C1=O`, the CC50 with HeLa [1] is over 100000 nM; with HeLa [4], 2700 nM. In addition, the IC50 in assay [2] came out at 45 nM. In the assay on HeLa [3], the Ratio was 1.7.

Take `CC(=O)C1=C(O)C=C2Oc3c(-c4csc(NN=CCC(C)CCC=C(C)C)n4)c(O)c(C)c(O)c3[C@@]2(C)C1=O` (stereo not given in full): the values for the CC50 with HeLa [1] and with HeLa [4] were 20000 nM and 630 nM, respectively. The IC50 in assay [2] was determined as 16.4 nM. Further, the Ratio in the assay with HeLa [3] is 7.1.

As to `CC[C@@]1(O)C(=O)OCc2c1cc1n(c2=O)Cc2cc3c(CN(C)C)c(O)ccc3nc2-1` [TOPOTECAN], the CC50 with HeLa [1] was found to be 4500 nM.

As for `CCCCCCCC=NNc1nc(-c2c(O)c(C)c(O)c3c2OC2=CC(O)=C(C(C)=O)C(=O)[C@@]23C)cs1`, the CC50 with HeLa [1] was found to be 20000 nM. Besides, the IC50 in assay [2] came out at 88 nM.

Turning to `CC(=O)C1=C(O)C=C2Oc3c(-c4csc(NN=C5C=C(C)[C@H]6C[C@@H]5C6(C)C)n4)c(O)c(C)c(O)c3[C@@]2(C)C1=O` (mixture of isomers), the results for the CC50 in the assay on HeLa [1] and in the assay with HeLa [4] were 20000 nM and 3500 nM, respectively. Besides, in assay [2], the IC50 is 46 nM. Besides, in the assay on HeLa [3], the Ratio was found to be 1.3.
